Laboratory results taken from article PMC4872532, “Development of antithrombotic nanoconjugate blocking integrin α2β1-collagen interactions” (Scientific Reports, 2016).
Where no end group is shown, it is not given here.

Experiments:
[1] = biological target: Triple Helical Collagen Peptide (GPO)2GFOGER(GPO)3; test: Isothermal titration calorimetry, binding to triple helical collagen peptide; settings: L-PGMA in deionized water containing normal saline concentration, 600 μM collagen peptide, 10 °C, mean ± S.D., N = 3
Sequence of Triple Helical Collagen Peptide (GPO)2GFOGER(GPO)3 (as listed by the source): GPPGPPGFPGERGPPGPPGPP
Experimental: ITC experiments were performed to investigate the thermodynamic binding characteristics of L-PGMA NPs on the triple helical collagen peptide (Fig. 4A). The triple helix collagen peptide containing GFOGER recognition sequence was titrated with L-PGMA NPs. The data of LWWNSYY was also examined and used as control.
(§1) Glycidyl methacrylate (97%) and ethylene glycol dimethacrylate (97%) were purchased from Sigma-Aldrich (St. Louis, MO, USA). Dimethy sulfoxide (DMSO), epichlorohydrin (ECH), EG and sodium borohydride (NaBH4) were of analytical grade from Guangfu Fine Chemical Research Institute (Tianjin, China). The triple helix collagen peptide, with an amino acid sequence of (GPO)2GFOGER(GPO)3, was purchased as HPLC-purified powder with a purity of >95% from ChinaPeptides (Shanghai, China). LWWNSYY was obtained as lyophilized powder with a purity of >95% from GL Biochem (Shanghai, China). Sheep blood containing 0.4% sodium citrate (w/v) was purchased from Ruite Bio-tec (Guangzhou, China). Bovine serum albumin (BSA) was purchased from Sigma (St. Louis, MO, USA). ρ-nitrophenylphosphate (PNPP) was purchased from Aladdin Industrial Corporation (Shanghai, China) with a purity of 98%. Sodium chloride (NaCl), tris (hydroxymethyl) aminomethane (Tris) and other reagents were of analytical grade from Sangon Biotech Co., Ltd. (Shanghai, China).
The binding between collagen peptide and LWWNSYY in normal saline or normal saline containing 25% (v/v) EG was investigated following the procedure reported previously, the concentration of collagen peptide in the cell was 80 μM, while the concentration of LWWNSYY was 1.0 mM. To investigate the binding between collagen peptide and L-PGMA NPs in normal saline, the concentration of L-PGMA NPs in the cell was 48 μM (in full text, the concentration of L-PGMA NPs represents the concentration of conjugated LWWNSYY on the surface of L-PGMA NPs in solution), while the concentration of collagen peptide was 600 μM. All samples were treated by 20 min degassing prior to the examination. Isothermal calorimetric titrations were performed in a titration mode with a 1.425 mL sample cell, using a VP isothermal titration calorimeter (MicroCal, Northampton, MA). 8 μL LWWNSYY was injected over 16 s for 30 times, with a spacing time of 350 s between injections. The reference power was set to 20 μcal/s, and the stirring speed was 307 rpm. To reserve the active triple helical form of collagen peptide, the temperature in ITC cell was kept at 10 °C. […] Titration data were analyzed using MicroCal Origin (Version 7.0). […] Consequently, the integrated enthalpy was calculated from the single-site binding model. Thermodynamics parameters, including Kd, ΔH, TΔS, and Gibbs free energy (ΔG) were calculated.

[2] = tested on: platelet adhesion on collagen peptide; test: Platelet solid-phase adhesion assay on collagen peptide; format: cell-based, sheep; settings: for IC50, concentration required to inhibit half of the specific binding (platelet adhesion): collagen peptide coated 100 μg/mL, inhibitor in normal saline 1 h at 18 °C, washed, platelets 1 h at 18 °C, p-nitrophenyl phosphate read-out 405 nm, L-PGMA NPs concentration = conjugated LWWNSYY
Text: as §1
Adhesion was determined colorimetrically, following the procedure reported previously. Anticoagulated sheep blood was obtained by the addition of 0.4% sodium citrate (w/v), allowing about five days for the transportation before the tests. Platelet-rich plasma (PRP) was obtained as the supernatant after centrifugation of the anticoagulated sheep blood at 180 g for 20 min at 4 °C. Then platelet was obtained as the precipitate after centrifugation of PRP at 1000 g for 10 min at 4 °C[12], which was suspended in adhesion buffer (TBS containing 0.1% BSA) to prepare platelet suspension buffer for further use. Microtiter HB 96-well plates (Costar, Corning Inc., USA) were coated with 100 μL collagen peptide (100 μg/mL) dissolved in 0.01 M acetic acid for 4 h at 18 °C. Reagents without adhesion were discarded, and the wells were washed by 200 μL TBS (50 mM Tris-HCl, 140 mM NaCl, 2 mM Mg^2+, pH 7.4) for three times. Then, wells were blocked for 1 h by 100 μL of TBS containing 50 mg/mL BSA. After three washes by 200 μL TBS, 100 μL LWWNSYY or L-PGMA NPs with different concentrations dissolved in normal saline was applied to each well and incubated at 18 °C for 1 h. 100 μL platelet suspension buffer were added to each well after three washes to remove non-reacted inhibitors, and plates were incubated at 18 °C for 1 h. Unbound platelets were then discarded, and the wells were washed as above. 150 μL lysis buffer (0.1 M citrate, pH 5.4, containing 0.1% Triton X-100 and 5 mM p-nitrophenyl phosphate) was added to each well. Reaction was terminated after 1 h by addition of 100 μL NaOH (3 M), and plates were read at 405 nm using an automated plate reader (ELX800, BioTek Instruments Inc., USA). […] The effect of binding to BSA or B-PGMA NPs was eliminated. According to the standard above, the absorption value was transformed to inhibition ratio. Data was presented as the mean ± S.D. from three independent experiments (n = 8). Dose-response inhibition ratio curves were fitted using the Hill equation[48][49]. The concentration of LWWNSYY or L-PGMA NPs required to inhibit half of the specific binding, IC50, and the maximum inhibition ratio, IRmax, were calculated based on the Hill equation[50].

[3] = tested on: carotid artery thrombus formation; test: FeCl3-induced carotid artery thrombus formation; format: in vivo, Wistar rats; settings: 0.625 mg/kg i.v., N = 5
Text: Adult SPF male Wistar rats weighing 180–220 g were purchased from HFK Bioscience Co. (Beijing, China), and housed in a standard temperature-, light-, and humidity-controlled animal enclosures at the institute of Radiation Medicine in Chinese Academy of Medical Sciences. All rats had free access to food and water, and were acclimated for at least 1 week. The Institute of Radiation Medicine Animal Care and Use Committee approved the protocols for the care and use of animals, and all animal procedures were carried out in accordance with the approved guidelines.
FeCl3-induced arterial injury in rats was performed following the procedure reported previously. Rats were randomly divided into 4 groups (N = 5) and fasted for 12 h before the surgery. They were anesthetized with 10% chloral hydrate (3 mL/kg, i.p.) and placed on a 37 °C warming pad throughout the experiment. The right carotid artery was exposed by blunt dissection with minimal blood loss, and a Doppler flow probe (Transonic T400, USA) was attached to the artery to monitor blood flow continuously. […] After 20 min, the filter paper was removed, and the vessel was washed with normal saline. The blood flow was monitored continuously for 30 min after injury. At the end of 30-minute period, thrombus size was evaluated by the weight. Immediately after the experiment, the rats were sacrificed by cervical dislocation while still under deep anesthesia. Data are expressed as mean ± S.D. Data were analyzed by one-way ANOVA, followed by Duncan’s post hoc test. Statistical significance was set at p < 0.05.

[4] = Particle size and zeta potential by dynamic light scattering; format: physicochemical; settings: Zetasizer Nano, deionized water, 25 °C, mean ± S.D., N = 3
Experimental: Particle size and zeta potential were measured by dynamic light scattering (DLS) in deionized water at room temperature, as shown in Table 1.
The samples were submitted to size or zeta analysis by injecting them into disposable DLS or zeta potential cuvettes at 25 °C. The results were reported as the average of three repeated experiments.

[5] = UV-VIS quantification of immobilized LWWNSYY; format: physicochemical; settings: UV-VIS absorption peak at 280 nm; B-PGMA NPs background subtracted
Text: The chemical conjugation of LWWNSYY onto the surface of PGMA-ECH NPs was examined using fourier transform infrared spectra (FTIR) spectroscopy (Fig. 2). […] This indicates successful chemical conjugation of LWWNSYY onto the surface of PGMA-ECH NPs through the opening of epoxy group. UV-VIS spectra further confirmed formation of L-PGMA NPs (Fig. S1 in Supporting Information), with an absorption peak at 280 nm corresponding to the characteristic absorption of tryptophan residues in LWWNSYY. […] The formation of LWWNSYY clusters due to its high hydrophobicity was then expected to be inhibited.
UV-VIS spectra of L-PGMA NPs were obtained by Lambda 35 (Perkin Elmer, USA) UV-VIS spectrophotometer. Spectra were collected within a range of 200–600 nm. The nanoparticles without conjugated LWWNSYY were denoted as B-PGMA NPs. That is, the value of B-PGMA NPs with the same concentration was subtracted as background in analysis. Data were representative of three repeated experiments.

ICR mice = test: Toxicity assay of inhibitors; format: in vivo; settings: for toxicity: i.v. 2.5 mg/kg, N = 4, 7 days
Experimental: S4. Toxicity Assay of Inhibitors
Eight specific pathogen free (SPF) ICR mice weighing about 18-22 g (HFK Bioscience Co., Ltd., Beijing, China) were randomly divided into two groups (N=4, half males and half females), and then treated with LWWNSYY or L-PGMA NPs (i.v., 2.5mg/10ml/kg) to investigate their toxicity, respectively. After treatment, animals were maintained under standard conditions with food ad libitum and maintained in a 12 h/12 h light/dark cycle at room temperature. Behavior, mortality and any other clinical signs of mice were observed […]
1.Bullock, A. N. et al., Thermodynamic stability of wild-type and mutant p53 core domain. P. Natl Acad. Sci.

Substance | Kd ([1]; 48 μM L-PGMA NPs in cell (concentration of conjugated LWWNSYY), single-site binding model) | TΔS ([1]; 48 μM L-PGMA NPs in cell) | ΔG ([1]; 48 μM L-PGMA NPs in cell) | ΔH ([1]; 48 μM L-PGMA NPs in cell) | plateau of inhibition ratio curve, platelet adhesion ([2]; 1–50 μg/mL LWWNSYY, 0.1–40 μg/mL L-PGMA NPs (conjugated LWWNSYY)) | maximum inhibition ratio (IRmax) of platelet adhesion ([2]; Hill fit, 1–50 μg/mL LWWNSYY, 0.1–40 μg/mL L-PGMA NPs (conjugated LWWNSYY) in normal saline, 18 °C, mean ± S.D., N = 8) | IC50, concentration required to inhibit half of the specific binding (platelet adhesion) ([2]; Hill fit, mean ± S.D., N = 8) | IC50 relative to that of free LWWNSYY ([2]; decreased to this fraction of free LWWNSYY IC50) | thrombus weight ([3]; 15 min before 12% FeCl3, 30 min after injury, mean ± S.D., control 7.41 ± 1.75 mg, LWWNSYY p < 0.01, L-PGMA NPs p < 0.001 compared to control, no significant difference between the two) | occlusion at 30 min ([3]; 15 min before 12% FeCl3) | mean blood flow, relative to initial blood flow ([3]; 15 min before 12% FeCl3, at end of 30-min period, p < 0.001 compared to control or LWWNSYY group) | reduction of thrombus weight compared to the control group ([3]; 30 min after injury) | reduction of thrombus weight compared to LWWNSYY group ([3]; 30 min after injury, difference not significant) | mean blood flow rate at all time points ([3]; compared to the control or LWWNSYY group) | Hydrodynamic diameter ([4]; DLS) | Polydispersity index ([4]; DLS) | Zeta potential [4] | immobilized LWWNSYY [5] | clinical signs (ICR mice; 2.5mg/10ml/kg i.v., N = 4 (half males, half females), observed 7 days) | toxicity (ICR mice)
LWWNSYY [L-PGMA NPs, LWWNSYY-PGMA nanoparticles conjugate; LWWNSYY immobilized to the surface of poly(glycidyl methacrylate) nanoparticles] | 3.45 ± 1.06 µM | 8.44 ± 0.37 kcal/mol | -7.09 ± 0.16 kcal/mol | 1.35 ± 0.21 kcal/mol | 100% | 102.6 ± 3.4% | 1.83 ± 0.29 µg/mL | 1/3 | 3.70 ± 0.45 mg | No occlusion was observed | about 85% | ~50% | ~15% | significantly higher | 106.6 ± 0.91 nm | 0.06 ± 0.02 | −32.9 ± 0.57 mV | 3.2 ± 0.2 mg in 100 mg of PGMA NPs | no abnormal clinical signs | little toxicity
LWWNSYY [LWWNSYY] |  |  |  |  |  |  | 5.66 ± 1.13 µg/mL |  |  |  |  |  |  |  |  |  |  |  |  | little toxicity
